For one assay, the target named is T1, hGIPR (Homo sapiens, UniProt P48546).
T1 construct: expressed in transfected cells
T1 sequence (P48546 22-466): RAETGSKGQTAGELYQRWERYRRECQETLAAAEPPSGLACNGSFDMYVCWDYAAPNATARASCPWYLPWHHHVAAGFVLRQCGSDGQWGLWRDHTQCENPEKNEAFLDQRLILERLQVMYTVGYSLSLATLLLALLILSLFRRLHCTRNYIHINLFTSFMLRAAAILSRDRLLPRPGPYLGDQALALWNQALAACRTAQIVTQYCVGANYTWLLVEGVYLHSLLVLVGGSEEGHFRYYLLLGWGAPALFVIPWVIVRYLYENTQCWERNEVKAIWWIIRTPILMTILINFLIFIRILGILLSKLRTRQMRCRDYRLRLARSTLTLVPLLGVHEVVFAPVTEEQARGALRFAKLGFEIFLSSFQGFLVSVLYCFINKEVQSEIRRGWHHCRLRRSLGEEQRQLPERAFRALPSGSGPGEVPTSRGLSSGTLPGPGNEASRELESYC
The assay is described as follows: Functional cAMP formation (HTRF) in HEK-293 clonal cells expressing hGIPR, 0.1% bovine casein, without or with 1.0% human serum albumin. The class given is cell-based. The settings on record: for EC50: cAMP, 0.1% bovine casein (no human serum albumin), geometric mean. The procedure, abridged: (§1)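 Cells were stimulated with peptide for 30 min at 37° C, then intracellular cAMP was measured by competitive HTRF (665/620 nm ratio) and converted to nM using a cAMP standard curve. Relative EC50 and Emax came from four-parameter logistic fits of percent maximal response against peptide concentration.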
(Changes in cAMP serve as a functional read-out for many G protein-coupled receptors.)

A further assay addresses T2, hGCGR (Homo sapiens, UniProt P47871).
T2 construct: expressed in transfected cells
The assay is described as follows: Functional cAMP formation (HTRF) in HEK-293 clonal cells expressing hGCGR, 0.1% bovine casein, without or with 1.0% human serum albumin. Format: cell-based. The settings on record: geometric mean. Summed up: as §1

The mark [1] stands for this setting: incubated at 37° C., read-out: hGIPR EC50, nM (SEM, n).
[2] abbreviates: cAMP, incubated at 37° C., 0.1% bovine casein (no human serum albumin), read-out: hGCGR EC50, nM (SEM, n).
The mark [3] stands for this setting: HEK293, percent of maximal response to GIP(1-42)NH2, 37° C., 0.1% bovine casein, arithmetic mean, read-out: hGIPR Emax, % ± SEM.

SMILES strings stand for the structures. Like-named read-outs stand apart in the source and are kept apart here.

T2 sequence (P47871 26-477): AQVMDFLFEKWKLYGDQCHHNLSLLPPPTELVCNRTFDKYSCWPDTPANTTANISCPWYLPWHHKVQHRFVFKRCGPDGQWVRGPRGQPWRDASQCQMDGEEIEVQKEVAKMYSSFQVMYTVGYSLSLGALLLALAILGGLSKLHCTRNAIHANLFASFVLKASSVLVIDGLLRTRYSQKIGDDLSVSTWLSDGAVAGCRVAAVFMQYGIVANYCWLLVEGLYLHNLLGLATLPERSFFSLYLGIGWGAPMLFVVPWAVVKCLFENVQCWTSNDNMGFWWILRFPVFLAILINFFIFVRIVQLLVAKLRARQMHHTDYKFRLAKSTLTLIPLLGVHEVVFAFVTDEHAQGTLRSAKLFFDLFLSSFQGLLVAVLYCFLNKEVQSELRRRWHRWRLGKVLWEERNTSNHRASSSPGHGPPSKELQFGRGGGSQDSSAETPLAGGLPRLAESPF

Usually EC50 stands for the midpoint of the concentration-response curve. For `CC[C@H](C)[C@H](NC(=O)[C@H](CC(C)C)NC(=O)[C@](C)(Cc1ccc(O)cc1)NC(=O)[C@@H](CCC(=O)O)NC(=O)[C@@H](NC(=O)[C@H](Cc1ccccc1)NC(=O)[C@H](CCC(=O)O)NC(=O)C(C)(C)NC(=O)[C@H](CCC(N)=O)NC(=O)[C@H](C)NC(=O)[C@H](CCCCNC(=O)COCCOCCNC(=O)COCCOCCNC(=O)CC[C@H](NC(=O)CCCc1ccc(C(C)(C)C)cc1)C(=O)O)NC(=O)[C@H](CCCN)NC(=O)[C@H](CC(=O)O)NC(=O)[C@H](CC(C)C)NC(=O)[C@](C)(CC(C)C)NC(=O)[C@@H](NC(=O)[C@H](CO)NC(=O)[C@H](Cc1ccncc1)NC(=O)[C@H](CC(=O)O)NC(=O)[C@H](CO)NC(=O)[C@@H](NC(=O)[C@](C)(Cc1ccccc1F)NC(=O)[C@@H](NC(=O)CNC(=O)[C@H](CCC(=O)O)NC(=O)C(C)(C)NC(=O)[C@@H](N)Cc1ccc(O)cc1)[C@@H](C)O)[C@@H](C)O)[C@@H](C)CC)[C@@H](C)CC)C(=O)N[C@@H](CCC(=O)O)C(=O)NCC(=O)N[C@@H](CCCCNC(=O)COCCOCCNC(=O)COCCOCCNC(=O)CC[C@H](NC(=O)CCCc1ccc(C(C)(C)C)cc1)C(=O)O)C(=O)N1CCC[C@H]1C(=O)N[C@@H](CO)C(=O)N[C@@H](CO)C(=O)NCC(=O)N[C@@H](C)C(=O)N1CCC[C@H]1C(=O)N1CCC[C@H]1C(=O)N1CCC[C@H]1C(=O)N[C@@H](CO)C(N)=O` [Example 134], the values for the EC50 at hGIPR (setting [1]) and on hGCGR (setting [2]) were 0.0238 nM and above 9950 nM, respectively.

What is called Emax is the greatest response seen or fitted, relative to the assay's reference. In the case of `CC[C@H](C)[C@H](NC(=O)[C@H](CCCN)NC(=O)[C@H](CC(=O)O)NC(=O)[C@H](CC(C)C)NC(=O)[C@](C)(CC(C)C)NC(=O)[C@@H](NC(=O)[C@H](CO)NC(=O)[C@H](CCCCNC(=O)COCCOCCNC(=O)COCCOCCNC(=O)CC[C@H](NC(=O)CCCCCCCCCCCCC(=O)O)C(=O)O)NC(=O)[C@H](CC(=O)O)NC(=O)[C@H](CO)NC(=O)[C@@H](NC(=O)[C@](C)(Cc1ccccc1F)NC(=O)[C@@H](NC(=O)CNC(=O)[C@H](CCC(=O)O)NC(=O)C(C)(C)NC(=O)[C@@H](N)Cc1ccc(O)cc1)[C@@H](C)O)[C@@H](C)O)[C@@H](C)CC)C(=O)N[C@@H](C)C(=O)N[C@@H](CCC(N)=O)C(=O)NC(C)(C)C(=O)N[C@@H](CCC(=O)O)C(=O)N[C@@](C)(Cc1ccccc1)C(=O)N[C@H](C(=O)N[C@H](CCC(=O)O)C(=O)N[C@@](C)(Cc1ccc(O)cc1)C(=O)N[C@@H](CC(C)C)C(=O)N[C@H](C(=O)N[C@@H](CCC(=O)O)C(=O)NCC(=O)NCC(=O)N[C@@H](CCCCNC(=O)COCCOCCNC(=O)COCCOCCNC(=O)CC[C@H](NC(=O)CCCCCCCCCCCCC(=O)O)C(=O)O)C(=O)N[C@@H](CO)C(=O)N[C@@H](CO)C(=O)NCC(=O)N[C@@H](C)C(=O)N1CCC[C@H]1C(=O)N1CCC[C@H]1C(=O)N1CCC[C@H]1C(=O)N[C@@H](CO)C(N)=O)[C@@H](C)CC)[C@@H](C)CC` [Example 112], the Emax at hGIPR (setting [3]) amounted to 93.6%. The EC50 was 0.0229 nM on hGIPR (setting [1]) and above 9950 nM at hGCGR (setting [2]).

In the case of `CC[C@H](C)[C@H](NC(=O)[C@H](CC(C)C)NC(=O)[C@](C)(Cc1ccc(O)cc1)NC(=O)[C@H](CCCCNC(=O)[C@@H](N)CCCCNC(=O)[C@@H](N)CCCCNC(=O)CC[C@H](NC(=O)CCCCCCCCCCCCC(=O)O)C(=O)O)NC(=O)[C@@H](NC(=O)[C@H](Cc1ccccc1)NC(=O)[C@H](CCC(=O)O)NC(=O)C(C)(C)NC(=O)[C@H](CCC(N)=O)NC(=O)[C@H](C)NC(=O)[C@H](CCCCNC(=O)[C@@H](N)CCCCNC(=O)[C@@H](N)CCCCNC(=O)CC[C@H](NC(=O)CCCCCCCCCCCCC(=O)O)C(=O)O)NC(=O)[C@H](CCCN)NC(=O)[C@H](CC(=O)O)NC(=O)[C@H](CC(C)C)NC(=O)[C@](C)(CC(C)C)NC(=O)[C@@H](NC(=O)[C@H](CO)NC(=O)[C@H](Cc1ccncc1)NC(=O)[C@H](CC(=O)O)NC(=O)[C@H](CO)NC(=O)[C@@H](NC(=O)[C@](C)(Cc1ccccc1F)NC(=O)[C@@H](NC(=O)CNC(=O)[C@H](CCC(=O)O)NC(=O)C(C)(C)NC(=O)[C@@H](N)Cc1ccc(O)cc1)[C@@H](C)O)[C@@H](C)O)[C@@H](C)CC)[C@@H](C)CC)C(=O)N[C@@H](CCC(=O)O)C(=O)NCC(=O)NCC(=O)N1CCC[C@H]1C(=O)N[C@@H](CO)C(=O)N[C@@H](CO)C(=O)NCC(=O)N[C@@H](C)C(=O)N1CCC[C@H]1C(=O)N1CCC[C@H]1C(=O)N1CCC[C@H]1C(=O)N[C@@H](CO)C(N)=O` [Example 162], the Emax at hGIPR (HEK293, read-out: hGIPR Emax, % ± SEM, percent of maximal response to GIP(1-42)NH2, 37° C., 0.1% bovine casein, arithmetic mean) came out at 89.7%. For the same compound, the EC50 on hGIPR (hGIPR EC50, nM (SEM, n), incubated at 37° C.) is 0.022 nM; at hGCGR (hGCGR EC50, nM (SEM, n), cAMP, incubated at 37° C., 0.1% bovine casein (no human serum albumin)), above 9950 nM.

Turning to `CC[C@H](C)[C@H](NC(=O)[C@H](CC(C)C)NC(=O)[C@](C)(Cc1ccc(O)cc1)NC(=O)[C@@H](CCC(=O)O)NC(=O)[C@@H](NC(=O)[C@H](Cc1ccccc1)NC(=O)[C@H](CCCCNC(=O)COCCOCCNC(=O)COCCOCCNC(=O)CCCCCCCCCCCCC(=O)O)NC(=O)C(C)(C)NC(=O)[C@H](CCC(N)=O)NC(=O)[C@H](C)NC(=O)[C@H](CCCCNC(=O)COCCOCCNC(=O)COCCOCCNC(=O)CCCCCCCCCCCCC(=O)O)NC(=O)[C@H](CCCN)NC(=O)[C@H](CC(=O)O)NC(=O)[C@H](CC(C)C)NC(=O)[C@](C)(CC(C)C)NC(=O)[C@@H](NC(=O)[C@H](CO)NC(=O)[C@H](Cc1ccc2ccccc2c1)NC(=O)[C@H](CC(=O)O)NC(=O)[C@H](CO)NC(=O)[C@@H](NC(=O)[C@](C)(Cc1ccccc1F)NC(=O)[C@@H](NC(=O)CNC(=O)[C@H](CCC(=O)O)NC(=O)C(C)(C)NC(=O)[C@@H](N)Cc1ccc(O)cc1)[C@@H](C)O)[C@@H](C)O)[C@@H](C)CC)[C@@H](C)CC)C(=O)N[C@@H](CCC(=O)O)C(=O)NCC(=O)NCC(=O)N1CCC[C@H]1C(=O)N[C@@H](CO)C(=O)N[C@@H](CO)C(=O)NCC(=O)N[C@@H](C)C(=O)N1CCC[C@H]1C(=O)N1CCC[C@H]1C(=O)N1CCC[C@H]1C(=O)N[C@@H](CO)C(N)=O` [Example 255], the Emax on hGIPR (HEK293, 0.1% bovine casein and 1.0% human serum albumin, 37° C., percent of maximal response to GIP(1-42)NH2, read-out: hGIPR Emax, % ± SEM) stood at 93.4%. In addition, the half-maximal effective concentration (EC50) is 0.0213 nM on hGIPR (37° C., read-out: hGIPR EC50, nM (SEM, n)); above 9950 nM at hGCGR (0.1% bovine casein and 1.0% human serum albumin, 37° C., read-out: hGCGR EC50, nM (SEM, n)); above 9950 nM at hGCGR (cAMP, 37° C., 0.1% bovine casein (no human serum albumin), read-out: hGCGR EC50, nM (SEM, n)).

On to `CC[C@H](C)[C@H](NC(=O)[C@H](CC(C)C)NC(=O)[C@](C)(Cc1ccc(O)cc1)NC(=O)[C@@H](CCC(=O)O)NC(=O)[C@@H](NC(=O)[C@H](Cc1ccccc1)NC(=O)[C@H](CCC(=O)O)NC(=O)C(C)(C)NC(=O)[C@H](CCC(N)=O)NC(=O)[C@H](C)NC(=O)[C@H](CCCCNC(=O)COCCOCCNC(=O)COCCOCCNC(=O)CC[C@H](NC(=O)CCCc1ccc(C(C)(C)C)cc1)C(=O)O)NC(=O)[C@H](CCCN)NC(=O)[C@H](CC(=O)O)NC(=O)[C@H](CC(C)C)NC(=O)[C@](C)(CC(C)C)NC(=O)[C@@H](NC(=O)C(C)(C)NC(=O)[C@@H](NC(=O)[C@H](CC(=O)O)NC(=O)[C@H](CO)NC(=O)[C@@H](NC(=O)[C@](C)(Cc1ccccc1)NC(=O)[C@@H](NC(=O)CNC(=O)[C@H](CCC(=O)O)NC(=O)C(C)(C)NC(=O)[C@@H](N)Cc1ccc(O)cc1)[C@@H](C)O)[C@@H](C)O)C(C)C)[C@@H](C)CC)[C@@H](C)CC)C(=O)N[C@@H](CCC(=O)O)C(=O)NCC(=O)NCC(=O)N[C@@H](CCCCNC(=O)COCCOCCNC(=O)COCCOCCNC(=O)CC[C@H](NC(=O)CCCc1ccc(C(C)(C)C)cc1)C(=O)O)C(=O)N[C@@H](CO)C(=O)N[C@@H](CO)C(=O)NCC(=O)N[C@@H](C)C(=O)N1CCC[C@H]1C(=O)N1CCC[C@H]1C(=O)N1CCC[C@H]1C(=O)N[C@@H](CO)C(N)=O` [Example 178], for which the Emax at hGIPR (setting [3]) was 105%. Besides, the concentration for a half-maximal effect (EC50) at hGIPR (setting [1]) was 0.11 nM; on hGCGR (setting [2]), above 9950 nM.
